Assay results from patent US4481201A, “Pharmaceutical composition containing N,N^3 -di-(β-bromopropionyl)-N^1,N^2 -dispirotripiperazinium dichloride” (Vsesojuzny Nauchno-Issledovatelsky Khimoko-Farmasevtichesky …, priority 1981, dated 1984).

Legend:
[1] = Growth of graft sarcoma AK in mice; format: in vivo, noninbred white mice; details: mouse, in vivo, ip; mice with sarcoma AK, repeated intraperitoneal administration; read-out: Maximum tolerable dose (MTD)
Source text: (§1) The antitumor activity has been studied on white rats weighing 110-130 g, as well as on white noninbred and inbred mice weighing 17-21 g with ligated tumors. The treatment is started 5-7 days transplanting of solid tumors and the following day after the transplanting of leukotic strains. Use has been made of the following transplantable strains of the tumors:
(§2) (2) noninbred white mice: sarcoma 180, sarcoma AK, sarcoma 37, carcinoma HK;
(§3) The compounds of the general formula (I), wherein X represents Cl^- (compound 1), Br^- (compound 2) are well-soluble in an isotonic solution of sodium chloride and they are administered intraperitoneally. The doses of the compounds have been calculated in mg per kg of the animal bodyweight.

sarcoma AK = assay: Growth of graft sarcoma AK in mice; format: in vivo, noninbred white mice; details: mice
Source text: as §1, §2, §3

acute leucosis = assay: Clinical study on patients; format: in vivo
Source text: The preparation according to the present invention has been studied in two clinics on patients with different localization of the tumoral process; the tests have justified its low toxicity.
54 patients were under observation including 20 patients with malignant blood diseases. In all the patients both before and after the course of treatment with the medicated compound according to the present invention the clinical state has been assessed (general state, presence of increased lymphatic nodes, liver and spleen). There were also carried out the analyses of peripheral blood, bone marrow, urine, as well as biochemical blood characteristics and electrocardiographic data (ECG).

[2] = Growth of graft Ienssen sarcoma in rats; format: in vivo; details: rat, in vivo, ip, rats with Ienssen sarcoma, repeated intraperitoneal administration; read-out: Maximum tolerable dose (MTD)
Source text: as §1
(§4) (1) rats: Ienssen's sarcoma, sarcoma 45, sarcoma M-1, sarcoma 536;
as §3

Ienssen's sarcoma = assay: Growth of graft Ienssen sarcoma in rats; format: in vivo; details: for Ch/T chemotherapeutical index (ratio of MTD to minimum effective dose): Ienssen sarcoma
Source text: as §1, §4, §3

leukemia P-388 = assay: Life span of mice with transplantable leukemia P-388; format: in vivo, inbred mice
Source text: as §1
(§5) (3) inbred mice: leukemia La, leukemia L1210 and P-388.
(§6) The activity of compounds relative to leukosis has been assessed by the life span (It) of treated animals as compared to the control ones. It --index of suppression of leukosis development is calculated by the formula: [formula]

sarcoma M-1 = assay: Growth of graft sarcoma M-1 in rats; format: in vivo; details: rats, 5 injections
Source text: as §1, §4, §3

leukemia L1210 = assay: Life span of mice with transplantable leukemia L1210; format: in vivo, inbred mice
Source text: as §1, §5, §6

[3] = Distribution of C^14-labeled preparation within organs and tissues of rats with sarcoma M-1; format: in vivo; details: rats with sarcoma M-1, intravenous
Source text: Furthermore, the particular distribution of the preparation according to the present invention within organs and tissues should also be noted.
In the case of administration of the preparation according to the present invention labeled with C^14, a higher level of radioactivity in blood is observed than in the case of prospidin labeled with C^14. A higher rate of accumulation of the preparation according to the present invention as compared to prospidin is observed in larynx, windpipe, bronchi, bone marrow, tumor and thyroid gland. The preparation according to the present invention labeled with C^14 is withdrawn from the organism within 24 hours after the intravenous administration mainly with urine, while C^14 --labeled prospidin is retained in the organism for a longer period.

[4] = 75 mg/kg intraperitoneally, 8 injections
[5] = 125 mg/kg intraperitoneally, 6 injections
[6] = hypodermally, 68.6 mg/kg, 5 injections
[7] = intramuscularly, 55.5 mg/kg, 6 injections
[8] = rats, 1 mg/kg intraperitoneally, 7 injections
[9] = rats, 4 mg/kg intraperitoneally, 6 injections
[10] = rats, 6 mg/kg intraperitoneally, 6 injections
[11] = rats, 10 mg/kg intraperitoneally, 7 injections
[12] = rats, 20 mg/kg intraperitoneally, 7 injections
[13] = rats, 40 mg/kg intraperitoneally, 5 injections
[14] = rats, 90 mg/kg intraperitoneally, 7 injections
[15] = rats, 125 mg/kg intraperitoneally, 7 injections
[16] = rats, per os, 142 mg/kg, 7 injections
[17] = mice with transplantable leukemia P-388
[18] = mice with transplantable leukemia L1210

O=C(CCBr)N1CC[N+]2(CC1)CC[N+]1(CCN(C(=O)CCBr)CC1)CC2 [Compound 1, N,N^3 -di-(β-bromopropionyl)-N^1,N^2 -dispirotripiperazinium dichloride]
MTD [1]: 250 mg/kg
Change in the animal body weight, test (sarcoma AK; [4]): -3 g
It, % tumor growth suppression index (sarcoma AK; [4]): +81%
Change in the animal body weight, test (sarcoma AK; [5]): -1 g
It, % tumor growth suppression index (sarcoma AK; [5]): +62%
It, % tumor growth suppression index (sarcoma AK; 200 mg/kg intraperitoneally, 5 injections): +64%
Change in the animal body weight, test (sarcoma AK; 250 mg/kg intraperitoneally (MTD), 6 injections): -3 g
patients with positive effect (acute leucosis; intravenously, doses of from 100 to 1,000 mg): 45%
tolerability in patients (acute leucosis; intravenously, single doses 500 to 600 mg daily (up to 10 g for 20 days)): well tolerated
patients with complete clinicohematological remission (acute leucosis; patients with acute lympho- and mielo-regional leukemiae, intravenously 100 to 1,000 mg): 20%
MTD [2]: 160 mg/kg
Ch/T chemotherapeutical index (ratio of MTD to minimum effective dose) (Ienssen's sarcoma): 60
Ch/T chemotherapeutical index (ratio of MTD to minimum effective dose) (Ienssen's sarcoma; listed as Preparation of the invention): 60
Change in the bodyweight of animals, test (Ienssen's sarcoma; [6]): -6 g
It, % (Ienssen's sarcoma; [6]): +86%
Change in the bodyweight of animals, test (Ienssen's sarcoma; [7]): -11 g
It, % (Ienssen's sarcoma; [7]): +78%
Change in the animal body weight, test (Ienssen's sarcoma; [8]): -2 g
It, % tumor growth suppression index (Ienssen's sarcoma; [8]): 0%
Change in the animal body weight, test (Ienssen's sarcoma; rats, 2 mg/kg intraperitoneally, 6 injections): -1 g
Change in the animal body weight, test (Ienssen's sarcoma; [9]): 0 g
It, % tumor growth suppression index (Ienssen's sarcoma; [9]): +81%
Change in the animal body weight, test (Ienssen's sarcoma; [10]): +10 g
It, % tumor growth suppression index (Ienssen's sarcoma; [10]): +80%
Change in the animal body weight, test (Ienssen's sarcoma; [11]): +4 g
It, % tumor growth suppression index (Ienssen's sarcoma; [11]): +93%
Change in the animal body weight, test (Ienssen's sarcoma; [12]): +30 g
It, % tumor growth suppression index (Ienssen's sarcoma; [12]): +98%
Change in the animal body weight, test (Ienssen's sarcoma; [13]): +20 g
It, % tumor growth suppression index (Ienssen's sarcoma; [13]): +85%
Change in the animal body weight, test (Ienssen's sarcoma; [14]): +6 g
It, % tumor growth suppression index (Ienssen's sarcoma; [14]): +86%
Change in the animal body weight, test (Ienssen's sarcoma; [15]): +4 g
It, % tumor growth suppression index (Ienssen's sarcoma; [15]): +89%
Change in the animal body weight, test (Ienssen's sarcoma; rats, 160 mg/kg intraperitoneally (MTD), 7 injections): -12 g
Change in the bodyweight of animals, test (Ienssen's sarcoma; [16]): -15 g
It, % (Ienssen's sarcoma; [16]): +55%
range of therapeutical action as compared to prospidin (Ienssen's sarcoma; wider than prospidin): 2.5 fold
extension of life span as compared to the control, factor (leukemia P-388; leukemia P-388): 2
It, % index of suppression of leukosis development (leukemia P-388; [17]): 103%
Life span (leukemia P-388; [17]): 19.7 ± 0.2 days
Change in the animal body weight, test (sarcoma M-1; 90 mg/kg intraperitoneally): +7 g
It, % tumor growth suppression index (sarcoma M-1; 90 mg/kg intraperitoneally): +96%
Change in the animal body weight, test (sarcoma M-1; 111 mg/kg intraperitoneally (MTD)): +4 g
extension of life span as compared to the control, factor (leukemia L1210; leukemia L1210): 1.03
It, % index of suppression of leukosis development (leukemia L1210; [18]): 38%
Life span (leukemia L1210; [18]): 10.6 ± 2 days
Coefficient of differential accumulation, Blood ([3]; 15 min): 1.43
Coefficient of differential accumulation, Bone marrow ([3]; 15 min): 3.84
Coefficient of differential accumulation, Bronchi ([3]; 15 min): 3.4
Coefficient of differential accumulation, Hypophysis ([3]; 15 min): 6.3
Coefficient of differential accumulation, Kidneys ([3]; 15 min): 10.4
Coefficient of differential accumulation, Larynx ([3]; 15 min): 4.15
Coefficient of differential accumulation, Liver ([3]; 15 min): 0.94
Coefficient of differential accumulation, Lungs ([3]; 15 min): 0.95
Coefficient of differential accumulation, Lymphonodes ([3]; 15 min): 0.69
Coefficient of differential accumulation, Spleen ([3]; 15 min): 0.66
Coefficient of differential accumulation, Thymus gland ([3]; 15 min): 1.67
Coefficient of differential accumulation, Tumor ([3]; 15 min): 1.76
Coefficient of differential accumulation, Tyroid gland ([3]; 15 min): 3.5
Coefficient of differential accumulation, Windpipe ([3]; 15 min): 7.29
Coefficient of differential accumulation, Blood ([3]; 30 min): 0.91
Coefficient of differential accumulation, Bone marrow ([3]; 30 min): 6.67
Coefficient of differential accumulation, Bronchi ([3]; 30 min): 2.83
Coefficient of differential accumulation, Hypophysis ([3]; 30 min): 6.67
Coefficient of differential accumulation, Kidneys ([3]; 30 min): 5.4
Coefficient of differential accumulation, Larynx ([3]; 30 min): 3.43
Coefficient of differential accumulation, Liver ([3]; 30 min): 0.69
Coefficient of differential accumulation, Lungs ([3]; 30 min): 0.71
Coefficient of differential accumulation, Lymphonodes ([3]; 30 min): 0.11
Coefficient of differential accumulation, Spleen ([3]; 30 min): 0.33
Coefficient of differential accumulation, Thymus gland ([3]; 30 min): 0.71
Coefficient of differential accumulation, Tumor ([3]; 30 min): 0.91
Coefficient of differential accumulation, Tyroid gland ([3]; 30 min): 2.73
Coefficient of differential accumulation, Windpipe ([3]; 30 min): 4.62
Coefficient of differential accumulation, Blood ([3]; 60 min): 0.47
Coefficient of differential accumulation, Bone marrow ([3]; 60 min): 3.78
Coefficient of differential accumulation, Bronchi ([3]; 60 min): 1.7
Coefficient of differential accumulation, Hypophysis ([3]; 60 min): 5.13
Coefficient of differential accumulation, Kidneys ([3]; 60 min): 2.6
Coefficient of differential accumulation, Larynx ([3]; 60 min): 2.0
Coefficient of differential accumulation, Liver ([3]; 60 min): 0.76
Coefficient of differential accumulation, Lungs ([3]; 60 min): 0.86
Coefficient of differential accumulation, Lymphonodes ([3]; 60 min): 0.69
Coefficient of differential accumulation, Spleen ([3]; 60 min): 0.32
Coefficient of differential accumulation, Thymus gland ([3]; 60 min): 0.54
Coefficient of differential accumulation, Tumor ([3]; 60 min): 0.57
Coefficient of differential accumulation, Tyroid gland ([3]; 60 min): 1.43
Coefficient of differential accumulation, Windpipe ([3]; 60 min): 4.64
Coefficient of differential accumulation, Blood ([3]; 24 hours): 0.05
Coefficient of differential accumulation, Bone marrow ([3]; 24 hours): 0.76
Coefficient of differential accumulation, Bronchi ([3]; 24 hours): 0.24
Coefficient of differential accumulation, Hypophysis ([3]; 24 hours): 4.12
Coefficient of differential accumulation, Kidneys ([3]; 24 hours): 0.53
Coefficient of differential accumulation, Larynx ([3]; 24 hours): 0.58
Coefficient of differential accumulation, Liver ([3]; 24 hours): 0.32
Coefficient of differential accumulation, Lungs ([3]; 24 hours): 0.26
Coefficient of differential accumulation, Lymphonodes ([3]; 24 hours): 0.2
Coefficient of differential accumulation, Spleen ([3]; 24 hours): 0.11
Coefficient of differential accumulation, Thymus gland ([3]; 24 hours): 0.2
Coefficient of differential accumulation, Tumor ([3]; 24 hours): 0.26
Coefficient of differential accumulation, Tyroid gland ([3]; 24 hours): 0.48
Coefficient of differential accumulation, Windpipe ([3]; 24 hours): 0.6
